The text below walks through data of ChEMBL document CHEMBL1201862, “PubChem BioAssay data set” (2004).

Test systems include 786-0; BT-549; HOP-62; IGROV-1; KM12; LOX IMVI; M14; MDA-MB-435; NCI-H460; PC-3; RPMI-8226; SN12C; SR; SW-620; T47D; TK-10; U-251; UO-31; MOLT-4.
Assay in all cases: inhibition of tumour cell growth, NCI panel, 48 h

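48-hour exposure; five concentrations; linearly interpolated endpoints. GI50 = concentration required for 50% inhibition of growth.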 Active and inactive are the calls of the source. No stated cut-off is given here; in the data, active = GI50 up to about 1.1 µM and inactive = higher.

On to `COC(=O)[C@@H]1CS(=O)(=O)C(C(C)C)N1C(C)=O` (some centres undefined), for which the GI50 in the assay on 786-0, in the assay with BT-549, with HOP-62, in the assay on IGROV-1, in the assay on KM12 and in the assay on LOX IMVI was > 100 µM (inactive) each time. Besides, the GI50 in the assay with M14, with MDA-MB-435, in the assay on NCI-H460, in the assay with PC-3, in the assay with RPMI-8226 and in the assay on SN12C was > 100 µM (inactive) each time. Further, the GI50 in the assay with SR, in the assay with SW-620, in the assay on T47D, in the assay with TK-10, in the assay with U-251 and in the assay with UO-31 was > 100 µM (inactive) in each case.
Consider `CC1=C(C#N)C23C(=O)c4ccccc4C(=O)C2=C(O)C=CC3(O)N1` (centres undefined), for which the GI50 is 2.2 µM (inactive) in the assay with 786-0; 1.13 µM (inactive) in the assay with BT-549; 5.4 µM (inactive) in the assay with HOP-62; 2.38 µM (inactive) with IGROV-1; 9.08 µM (inactive) with KM12; 0.512 µM (active) in the assay on LOX IMVI. Also, the GI50 was 2.19 µM (inactive) with M14; 2.81 µM (inactive) in the assay on MDA-MB-435; 0.484 µM (active) in the assay with MOLT-4; 5.46 µM (inactive) in the assay on NCI-H460; 4.57 µM (inactive) in the assay with PC-3; 0.658 µM (active) in the assay on RPMI-8226. Besides, the GI50 was 2.24 µM (inactive) in the assay with SN12C; 0.269 µM (active) in the assay with SR; 0.553 µM (active) with SW-620; 7.4 µM (inactive) in the assay with T47D; 14.3 µM (inactive) with TK-10; 8.39 µM (inactive) in the assay on U-251. Moreover, the GI50 in the assay on UO-31 is 2.37 µM (inactive).
Consider `COC(=O)C(Cc1ccccc1)NS(=O)(=O)c1ccc(-c2c3nc(c(-c4ccc(S(=O)(=O)NC(Cc5ccccc5)C(=O)OC)cc4)c4ccc([nH]4)c(-c4ccc(S(=O)(=O)NC(Cc5ccccc5)C(=O)OC)cc4)c4nc(c(-c5ccc(S(=O)(=O)NC(Cc6ccccc6)C(=O)OC)cc5)c5ccc2[nH]5)C=C4)C=C3)cc1` (centres undefined), for which the GI50 is 53.6 µM (inactive) in the assay with 786-0; > 100 µM (inactive) in the assay on BT-549; 60.8 µM (inactive) in the assay on HOP-62; > 100 µM (inactive) in the assay with IGROV-1; > 100 µM (inactive) in the assay on KM12; > 100 µM (inactive) with LOX IMVI. Besides, the GI50 in the assay with M14 was > 100 µM (inactive); with MDA-MB-435, > 100 µM (inactive); in the assay with MOLT-4, > 100 µM (inactive); in the assay with NCI-H460, 85.5 µM (inactive); in the assay with PC-3, > 100 µM (inactive); in the assay on RPMI-8226 it was > 100 µM (inactive). For the same compound, the GI50 with SN12C was > 100 µM (inactive); in the assay on SR, > 100 µM (inactive); with SW-620, > 100 µM (inactive); with T47D, > 100 µM (inactive); in the assay on TK-10, > 100 µM (inactive); in the assay with U-251, 28.1 µM (inactive). Besides, the GI50 in the assay with UO-31 is > 100 µM (inactive).
`CCOC(=O)C(C(=O)OCC)=C1NC2(c3ccccc3Nc3ccccc32)C(C#N)S1` (centres undefined): the GI50 is 10.4 µM (inactive) in the assay on 786-0; 14.2 µM (inactive) in the assay on BT-549; 12.2 µM (inactive) with HOP-62; 11.1 µM (inactive) with IGROV-1; 4.37 µM (inactive) in the assay with KM12; 13.6 µM (inactive) with LOX IMVI. The GI50 was 7.46 µM (inactive) in the assay on M14; 7.73 µM (inactive) in the assay with MDA-MB-435; 3.53 µM (inactive) in the assay with MOLT-4; 3.79 µM (inactive) with NCI-H460; 4.52 µM (inactive) in the assay with PC-3; 3.01 µM (inactive) with RPMI-8226. Moreover, the GI50 with SN12C is 5.6 µM (inactive); in the assay on SR, 2.81 µM (inactive); with SW-620 it was 12.4 µM (inactive); in the assay on T47D, 4.66 µM (inactive); in the assay with TK-10 it was 13.5 µM (inactive); with U-251, 12.1 µM (inactive). In addition, in the assay with UO-31, the GI50 was 12.7 µM (inactive).
For `COc1ccc(/C=N/c2ccc(-c3nc4ccccc4[nH]3)cc2)cc1OC`, the GI50 is > 100 µM (inactive) with 786-0; 89.1 µM (inactive) in the assay with BT-549; > 100 µM (inactive) with HOP-62; 49.3 µM (inactive) with IGROV-1; > 100 µM (inactive) in the assay on KM12; > 100 µM (inactive) in the assay on LOX IMVI. For the same compound, the GI50 in the assay on M14, in the assay on MDA-MB-435, with MOLT-4, with NCI-H460, in the assay on PC-3 and in the assay on RPMI-8226 was > 100 µM (inactive) in each case. Also, the GI50 was > 100 µM (inactive) with SN12C; 81.7 µM (inactive) with SR; > 100 µM (inactive) with SW-620; > 100 µM (inactive) in the assay with T47D; > 100 µM (inactive) in the assay on TK-10; 42.5 µM (inactive) in the assay with U-251. Besides, the GI50 in the assay on UO-31 is > 100 µM (inactive).
For the compound `C/C(=N\NS(=O)(=O)c1ccc(C)cc1)c1ccccn1`, the GI50 was 45.3 µM (inactive) in the assay with 786-0; > 100 µM (inactive) in the assay with BT-549; 62.2 µM (inactive) in the assay on HOP-62; 47.2 µM (inactive) in the assay with IGROV-1; 43.7 µM (inactive) in the assay with KM12; 55.6 µM (inactive) with LOX IMVI. Moreover, the GI50 in the assay on M14 was 34.6 µM (inactive); in the assay on MDA-MB-435, > 100 µM (inactive); in the assay with MOLT-4 it was 21.2 µM (inactive); in the assay with NCI-H460, 49.7 µM (inactive); in the assay on PC-3, 84.3 µM (inactive); with RPMI-8226, > 100 µM (inactive). The GI50 was 65 µM (inactive) in the assay on SR; > 100 µM (inactive) in the assay on SW-620; 76.9 µM (inactive) in the assay with T47D; 70.6 µM (inactive) in the assay with TK-10; 88.5 µM (inactive) in the assay on U-251; 40.5 µM (inactive) in the assay with UO-31.
`CN(C)c1ccc(/C=C/c2ccnc3ccccc23)cc1`: the GI50 is 89.7 µM (inactive) in the assay on 786-0; 18.2 µM (inactive) with BT-549; > 100 µM (inactive) in the assay with HOP-62; > 100 µM (inactive) in the assay with IGROV-1; 55.8 µM (inactive) in the assay on KM12; 53.3 µM (inactive) with LOX IMVI. The GI50 in the assay on M14 is 65.8 µM (inactive); with MDA-MB-435, 23.1 µM (inactive); in the assay on NCI-H460, 47.9 µM (inactive); in the assay with PC-3 it was > 100 µM (inactive); with RPMI-8226 it was 51.1 µM (inactive); with SN12C, 64.9 µM (inactive). Also, the GI50 in the assay with SR was 30.5 µM (inactive); in the assay on SW-620 it was 39.4 µM (inactive); in the assay with T47D, 96.8 µM (inactive); in the assay with TK-10, 65.8 µM (inactive); in the assay on U-251, 84.7 µM (inactive); in the assay on UO-31, 43.9 µM (inactive).
Consider `COC(=O)/C(=C\c1cn(C(C)=O)c2ccccc12)P(=O)(OC)OC`, for which the GI50 in the assay with 786-0 is 17.6 µM (inactive); in the assay with BT-549, 15.8 µM (inactive); in the assay with HOP-62, 14.9 µM (inactive); with IGROV-1, 13.3 µM (inactive); with LOX IMVI, 5.55 µM (inactive); in the assay on M14, 15.2 µM (inactive). The GI50 is 21.2 µM (inactive) with MDA-MB-435; 34.8 µM (inactive) with MOLT-4; 15 µM (inactive) in the assay with NCI-H460; 16.2 µM (inactive) in the assay with PC-3; 17.1 µM (inactive) in the assay with RPMI-8226; 14.8 µM (inactive) in the assay on SN12C. The GI50 in the assay on SR was > 100 µM (inactive); with SW-620, 18.5 µM (inactive); with T47D, 13.7 µM (inactive); in the assay with TK-10 it was 20.8 µM (inactive); in the assay on U-251, 15.8 µM (inactive); in the assay on UO-31 it was 13.1 µM (inactive).
For `O=C(Nc1ccc2[nH]c(C(=O)N3CC(CCl)c4c3cc([N+](=O)[O-])c3ccccc43)cc2c1)c1cc2ccccc2o1` (centres undefined), the GI50 was > 100 µM (inactive) in the assay with 786-0; 38.2 µM (inactive) in the assay on BT-549; > 100 µM (inactive) in the assay on HOP-62; > 51.6 µM (inactive) in the assay on IGROV-1; > 100 µM (inactive) with KM12; > 51.2 µM (inactive) in the assay on LOX IMVI. Besides, the GI50 was > 100 µM (inactive) in the assay on M14; > 100 µM (inactive) with MDA-MB-435; > 37.5 µM (inactive) in the assay with NCI-H460; > 50.6 µM (inactive) with PC-3; > 100 µM (inactive) with RPMI-8226; > 100 µM (inactive) with SN12C. In addition, the GI50 is 95.9 µM (inactive) in the assay on SR; > 58.1 µM (inactive) with SW-620; > 55.2 µM (inactive) in the assay on T47D; > 54.5 µM (inactive) in the assay with TK-10; > 54.3 µM (inactive) in the assay on U-251; > 100 µM (inactive) with UO-31.
Consider `C[C@]12CC[C@@H]3c4cc(C=O)c(OCc5ccccc5)cc4CC[C@H]3[C@@H]1CCC2OCc1ccccc1` (some centres undefined), for which the GI50 in the assay with 786-0, with BT-549, in the assay on HOP-62, in the assay on KM12, in the assay on LOX IMVI and with M14 was > 100 µM (inactive) in each case. Also, the GI50 is > 100 µM (inactive) with MDA-MB-435; > 100 µM (inactive) in the assay with MOLT-4; > 100 µM (inactive) in the assay on NCI-H460; 56.6 µM (inactive) in the assay with PC-3; > 100 µM (inactive) in the assay with RPMI-8226; > 100 µM (inactive) in the assay with SN12C. Besides, the GI50 with SR was 73.1 µM (inactive); in the assay with SW-620, > 100 µM (inactive); in the assay with T47D, > 100 µM (inactive); in the assay with TK-10 it was > 100 µM (inactive); with U-251, > 100 µM (inactive); with UO-31 it was > 100 µM (inactive).
